# Columns and labels:
# TLR9 [1] = molecular target: T1, TLR9 (Mus musculus, UniProt Q9EQU3); test: Mouse splenocytes stimulated with 1018 ISS (TLR9 ligand), IL-6 by immunoassay; format: cell-based; details: TLR9 stimulation (1018 ISS)
# T1 construct: The dispersed splenocytes were pelleted by centrifugation, then resuspended in fresh medium; endogenous in cells; host or cells: primary splenocytes of BALB/c mice
# T1 sequence (Q9EQU3 26-1032): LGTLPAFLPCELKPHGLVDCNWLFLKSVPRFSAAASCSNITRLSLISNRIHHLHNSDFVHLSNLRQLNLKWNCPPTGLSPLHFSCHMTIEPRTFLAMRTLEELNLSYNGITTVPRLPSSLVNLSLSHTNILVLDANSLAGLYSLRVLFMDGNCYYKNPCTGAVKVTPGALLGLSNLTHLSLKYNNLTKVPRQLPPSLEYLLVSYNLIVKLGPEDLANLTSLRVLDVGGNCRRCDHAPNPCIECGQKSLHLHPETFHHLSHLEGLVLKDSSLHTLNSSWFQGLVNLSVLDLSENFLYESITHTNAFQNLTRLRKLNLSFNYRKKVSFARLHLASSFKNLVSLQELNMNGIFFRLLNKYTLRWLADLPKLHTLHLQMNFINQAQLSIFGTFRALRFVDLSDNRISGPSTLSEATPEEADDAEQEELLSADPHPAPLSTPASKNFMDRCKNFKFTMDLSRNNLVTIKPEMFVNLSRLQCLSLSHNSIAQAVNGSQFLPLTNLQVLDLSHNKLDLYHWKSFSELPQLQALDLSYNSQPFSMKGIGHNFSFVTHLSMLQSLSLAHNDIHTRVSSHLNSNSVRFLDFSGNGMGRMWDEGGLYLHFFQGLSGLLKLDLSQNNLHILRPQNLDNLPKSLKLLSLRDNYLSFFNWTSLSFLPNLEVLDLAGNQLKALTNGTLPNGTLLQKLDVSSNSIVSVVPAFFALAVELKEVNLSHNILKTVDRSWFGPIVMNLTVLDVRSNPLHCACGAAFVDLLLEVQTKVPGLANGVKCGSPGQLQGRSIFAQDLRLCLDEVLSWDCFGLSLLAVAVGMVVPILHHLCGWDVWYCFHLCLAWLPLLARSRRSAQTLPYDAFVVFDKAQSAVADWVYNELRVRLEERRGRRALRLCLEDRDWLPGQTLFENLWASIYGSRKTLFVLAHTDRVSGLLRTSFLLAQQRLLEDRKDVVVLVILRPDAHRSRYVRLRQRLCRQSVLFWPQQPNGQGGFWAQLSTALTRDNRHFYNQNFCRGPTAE
# Method: (§1) Modified and unmodified immunoregulatory polynucleotides (IRPs) (i.e., polynucleotides containing at least one modified or unmodified IRS) or control samples were assayed for immunoregulatory (IR) activity of innate immune responses on human and mouse cells.
# (§2) For mouse cell assays, spleens from 6-12 week-old BALB/c mice spleen were harvested and mechanically dispersed by forcing the digested fragments through metal screens. The dispersed splenocytes were pelleted by centrifugation, then resuspended in fresh medium (RPMI 1640 with 10% fetal calf serum, plus 50 units/mL penicillin, 50 μg/mL streptomycin, 2 mM glutamine, and 0.05 mM β-mercaptoethanol). In a dose-dependent manner, the cells were then stimulated with […] of 1018 ISS (TLR9 ligand; 5′-[…]-3′ (SEQ ID NO:122)) or 1 μM of R848 (TLR7 ligand; a small molecule, an imidazoquinoline also called resiquimod) either alone or in the presence of the tested IRPs. At 48 hours, supernatants were collected and cytokine levels, IL-6, were measured using immunoassays. […]
# TLR7 = molecular target: T2, TLR7 (Mus musculus, UniProt P58681); test: Mouse splenocytes stimulated with R848 (TLR7 ligand), IL-6 by immunoassay; format: cell-based
# T2 construct: The dispersed splenocytes were pelleted by centrifugation, then resuspended in fresh medium; endogenous in cells; host or cells: primary splenocytes of BALB/c mice
# T2 sequence (P58681 27-1050): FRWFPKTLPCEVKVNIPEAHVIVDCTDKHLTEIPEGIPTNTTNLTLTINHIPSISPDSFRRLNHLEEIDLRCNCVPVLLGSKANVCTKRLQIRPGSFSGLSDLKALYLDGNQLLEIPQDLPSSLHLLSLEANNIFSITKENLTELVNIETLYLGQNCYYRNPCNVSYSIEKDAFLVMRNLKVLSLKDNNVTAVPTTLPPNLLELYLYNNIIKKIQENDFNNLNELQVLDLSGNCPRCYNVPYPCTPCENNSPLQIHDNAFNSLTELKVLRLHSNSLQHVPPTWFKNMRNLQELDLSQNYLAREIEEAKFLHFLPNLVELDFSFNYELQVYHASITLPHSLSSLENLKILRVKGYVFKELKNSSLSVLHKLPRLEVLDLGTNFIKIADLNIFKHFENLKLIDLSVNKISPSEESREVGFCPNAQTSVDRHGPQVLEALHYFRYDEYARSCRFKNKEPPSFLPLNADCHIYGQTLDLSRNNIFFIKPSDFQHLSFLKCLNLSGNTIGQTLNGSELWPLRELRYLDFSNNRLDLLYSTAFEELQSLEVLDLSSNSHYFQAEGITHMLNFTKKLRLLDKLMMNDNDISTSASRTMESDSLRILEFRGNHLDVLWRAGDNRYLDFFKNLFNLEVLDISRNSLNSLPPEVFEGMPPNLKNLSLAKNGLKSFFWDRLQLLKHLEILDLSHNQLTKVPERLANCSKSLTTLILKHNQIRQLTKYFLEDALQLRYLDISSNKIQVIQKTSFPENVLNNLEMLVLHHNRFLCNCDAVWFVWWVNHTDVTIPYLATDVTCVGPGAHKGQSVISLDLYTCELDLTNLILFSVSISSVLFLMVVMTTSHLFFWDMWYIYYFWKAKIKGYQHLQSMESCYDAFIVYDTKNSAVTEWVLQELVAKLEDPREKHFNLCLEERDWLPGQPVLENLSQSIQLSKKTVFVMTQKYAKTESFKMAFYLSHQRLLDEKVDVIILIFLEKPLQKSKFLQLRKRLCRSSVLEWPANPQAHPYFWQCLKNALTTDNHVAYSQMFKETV
# Method: as §1, §2
# PDC = test: In vivo cell survival after escalating dose of Dexthametasone in 129 mice; set-up: species or system mouse; details: 0.5 mg-4 mg, 16 hours, spleen and blood
# Method: To investigate whether PDC are sensitive to glucorticoid induced death in vivo, 129 mice were treated with escalating dose of Dexthametasone (0.5 mg-4 mg) and after 16 hours spleen and blood was harvest. Cell survival was measured by flow cytometry. The number of viable cells was evaluated by flow cytometry by comparing to a fixed amount of microbeads that was added in equal amount in all samples prior to the measure on the flow cytometry.
# Specific markers were used to identify specific subsets. Cells were identified to be PDC by the surface presence of B220, CD11c, and PDCA1 marker. Myeloid dendritic cells were identified as to be CD11c positive and B220 negative. B-cells were identified as B220 positive cells and CD11c negative. Monocytes were identified as CD11b positive. Cell viability using cells from spleen tissue under increasing Dexthametason dose was evaluated and results are shown in FIG. 32. Similar results were obtained using blood (data not shown). PDC were sensitive to glucorticoid induced death in vivo.
# TLR9 [2] = molecular target: T3, TLR9 (Homo sapiens, UniProt Q9NR96); test: Human PDC activated with CpG-C ISS C274, IFN-α production, IRS coupled to Ficoll 400; format: cell-based; set-up: innate immune responses on human plasmacytoid dendritic cells (PDCs); endogenous in cells; host or cells: human plasmacytoid dendritic cells (PDCs); details: compared with IRS not coupled
# T3 sequence (Q9NR96 26-1032): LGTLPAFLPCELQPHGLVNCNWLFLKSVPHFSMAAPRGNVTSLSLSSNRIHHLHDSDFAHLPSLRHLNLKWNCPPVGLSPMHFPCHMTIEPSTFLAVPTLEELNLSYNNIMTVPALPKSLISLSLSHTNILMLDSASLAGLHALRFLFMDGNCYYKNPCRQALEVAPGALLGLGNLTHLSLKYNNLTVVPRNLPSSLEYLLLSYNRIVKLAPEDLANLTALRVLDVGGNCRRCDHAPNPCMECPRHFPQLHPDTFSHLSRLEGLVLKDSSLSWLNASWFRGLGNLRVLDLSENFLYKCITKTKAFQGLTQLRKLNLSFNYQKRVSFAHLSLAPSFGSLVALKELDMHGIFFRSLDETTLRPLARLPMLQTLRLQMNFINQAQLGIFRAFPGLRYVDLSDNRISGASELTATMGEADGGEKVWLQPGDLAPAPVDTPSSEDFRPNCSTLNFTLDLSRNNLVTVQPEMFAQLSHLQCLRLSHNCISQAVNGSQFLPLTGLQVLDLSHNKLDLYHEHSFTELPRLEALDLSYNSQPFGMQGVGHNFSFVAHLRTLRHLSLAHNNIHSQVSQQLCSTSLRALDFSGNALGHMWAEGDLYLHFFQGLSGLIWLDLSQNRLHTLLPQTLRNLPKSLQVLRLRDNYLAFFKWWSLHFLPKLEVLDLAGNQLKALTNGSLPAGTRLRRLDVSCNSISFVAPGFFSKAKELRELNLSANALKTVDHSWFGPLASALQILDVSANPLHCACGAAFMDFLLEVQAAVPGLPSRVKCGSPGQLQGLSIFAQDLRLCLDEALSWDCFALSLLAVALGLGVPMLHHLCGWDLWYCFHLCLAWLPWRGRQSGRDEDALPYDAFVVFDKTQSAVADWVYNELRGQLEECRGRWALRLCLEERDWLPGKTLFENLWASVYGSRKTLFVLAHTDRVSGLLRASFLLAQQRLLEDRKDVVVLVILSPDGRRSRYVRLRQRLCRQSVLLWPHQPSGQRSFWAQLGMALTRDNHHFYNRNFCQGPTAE
# Source text: To further investigate whether it is possible to increase IRS activity with respect to inhibition of IFN-α production by aggregating IRS molecule onto a higher order molecule, we have generated molecules that are composed by IRS oligonucleotides that are covalently associated to Ficoll 400, a neutral, highly branched, hydrophilic polymer of sucrose. The nature of this sugar allowed us to link between 10 to over 100 IRS oligos per Ficoll molecule.
# The conjugation of oligonucleotides to ficoll as practiced currently consists of four reaction steps: (I) The commercially obtained ficoll is carboxymethylated by reaction of ficoll with chloroacetic acid in base. (II) After neutralization and dialysis, product is reacted with ethylene diamine in the presence of the 1-ethyl-3-[3-(dimethylaminopropyl]carbodiimide) EDC to give product (III). After dialysis Product (III) is reacted with (sulfosuccinimidal 4-[N-maleimidyl]-cyclohexane-1-carboxylate) SMCC to give the ficoll-maleimide product (IV). The thiol-reactive species (IV) is then reacted with the oligonucleotide thiol to give the final product (V), a multioligonucleotide conjugate of ficoll.
# Thus, it is possible to increase IRS activity with respect to inhibition of IFN-α production by aggregating IRS molecule onto a higher order molecule.
molecule,measurement,setting,value
"5′-UGCUCCUGGAGGGG UUGU-3′ (DNA TGCTCCTGGAGGGGTTGT; all LNA, backbone and methylation of C not given here) [SEQ ID NO:161]",IL-6 levels compared to unmodified SEQ ID NO:123,TLR9 [1],failed to result in a significant decreased
same,IL-6 levels compared to unmodified SEQ ID NO:123,TLR7,failed to result in a significant decreased
C[C@@H]1C[C@H]2[C@@H]3CCC4=CC(=O)C=C[C@]4(C)[C@@]3(F)[C@@H](O)C[C@]2(C)[C@@]1(O)C(=O)CO [Dexthametasone],PDC sensitivity to glucorticoid induced death in vivo,PDC,sensitive
"IRS-Ficoll 400: 5′-TGCTCCTGGAGGGGTTGT-3′ (SEQ ID NO:123) coupled to Ficoll 400 (coupled to Ficoll 400, backbone chemistry not given here)",activity for blocking IFN-α production by PDC,TLR9 [2],much increased activity
